“And” between values parts separate entries of the source, which are not always exact repeats. Equal values may be shown once. Read-outs that look alike come from different tables or passages of the source. Non-standard residues stand in square brackets, D forms with d. *: point of attachment. Benzoyl(4-F) = O=C(c1ccc(F)cc1)*; Cit = NC(=O)NCCC[C@H](N)C(=O)O
Legend:
healthy subjects [1] = type: in vivo; conditions: for Mean CD34+ count (HSPC): four hours post first administration, baseline 5.8/μL, placebo 8; for Mean count of CD34+ HSPC: four hours post second administration, placebo 9
Procedure: (§1) White blood cell count—Blood count assays were performed using Beckman-Coulter analyzers (GENS,750,000).
(§2) Flow cytometry—Cells (100 μl) were stained for 30 minutes in 0.1 ml FACS buffer with fluorescence antibodies directed against Human CD3, CD19, CD56, CD4, CD8, CCR7, CD83, lin-cocktail, CD11c, CD45RA, CD25, /Foxp3+, CD16, CD34, CD38 CD105 or matched isotype controls and mouse CD3, and B220 all from eBioscience San Diego, Calif. 92121 USA. Following staining the cells were washed with FACS buffer and analyzed by flow cytometry (5 μl per sample) using the FACS Caliber Flow Cytometer (BD Biosciences). Data was analyzed using software from CellQuest (version 3.3; BD Biosciences). Cells were first gated according to the forward scatter and side scatter parameters to exclude dead cells and the number and percent of each cell population (e.g. HSPCs, T cells, B cells, NK cells, NKT cells and DCs) was analyzed.
The first part of the study was a randomized, double-blind, placebo-controlled dose escalation. […] After obtaining informed consent, BL-8040 was administered subcutaneously (SC) once daily on 2 consecutive days at a dose of 0.5, 0.75 or 1 mg/kg.

healthy subjects [2] = experiment: Open label single injection of BL-8040 followed by leukapheresis: composition of collected graft and kinetics of WBC, ImDC and T cells; type: in vivo, human
Procedure: FIG. 1 is a graph illustrating kinetic analysis of the effect of BL-8040 administration on mobilization of white blood cells (WBC) to the peripheral blood. The figure presents a time course of total WBC in the peripheral blood of subjects in response to a single SC administration of 1 mg/kg BL-8040 as determined by flow cytometry.
FIG. 2 is a graph illustrating kinetic analysis of the effect of BL-8040 administration on mobilization of immature dendritic cells (ImDC) to the peripheral blood. The figure presents a time course of ImDC in the peripheral blood of subjects in response to a single SC administration of 1 mg/kg BL-8040 as determined by flow cytometry.
FIG. 3 is a graph illustrating kinetic analysis of the effect of BL-8040 administration on mobilization of CD3+ T cells to the peripheral blood. The figure presents a time course of CD3+ T in the peripheral blood of subjects in response to a single SC administration of 1 mg/kg BL-8040 as determined by flow cytometry.
Leukapheresis—The leukapheresis procedure was commenced approximately 4 hours (±1 hour) post BL-8040 injection. Eighteen (18) Liter apheresis was collected at a Bone Marrow Transplant unit using the Spectra Optia® Apheresis System.
as §1, §2
The second part of the study was an open label test. 8 healthy subjects received a single injection of BL-8040 (1 mg/kg) and 3-4 hours later were subjected to a standard leukapheresis (18 L) procedure. The composition of the collected graft was tested for the number of WBCs per kg, number of CD34+ HSPC per kg and number and type of T cells, B cells, NK cells and dendritic cells (DC) per kg.

C57BL mice = experiment: Number of CD3+ T cells and B220+ B cells in spleen and peripheral lymph nodes of mice (FIG. 4); type: in vivo, mouse; conditions: 5 mg/kg
Procedure: FIG. 4 are graphs presenting the number of CD3+ T cells and B220+ B cells in spleen and peripheral lymph nodes (PLN) of C57BL mice prior (denoted as control) and following administration of 5 mg/kg BL-8040, as determined by flow cytometry.
as §2

C57BL/6 mice = experiment: BL8040-induced mobilization of T cell subsets in naive mice or mice bearing pancreatic or melanoma cancer; type: in vivo; conditions: 400 μg/mouse SC
Procedure: Six-to 8-week-old female or male C57BL/6 were purchased from Harlan laboratories. Mice were maintained and all animal experiments were conducted according to the protocols approved by the institutional animal care of the Hebrew university.
Female C57BL/6 mice were inoculated subcutaneously at the right flank with 1× 10^6 B16F10 cells in 0.1 mL PBS. When tumors reached 90 to 150 mm^2 in size (after two weeks), mice were treated with BL-8040, according to the below regimen.
1.5×10^6 Livmet cells/10 μl PBS and 10 μl Matrigel (BD Biosciences) were injected into the pancreas of male C57BL/6 mice. Mice were treated with BL8040, 3 weeks after the injection.
BL8040 (400 μg/mouse dissolved in phosphate-buffered saline) was administered once by subcutaneous injection and 2 h later the blood was collected into tube with heparin.
Fluorescent-activated cell sorting analysis was performed on whole blood (day 0) and expanded cells (day 10).
Whole blood was treated with red blood cell lysis solution (0 155 M NH4Cl, 0.01 M KHCO3, 0.01 mmol/l EDTA, pH 7.4) in order to lyse the erythrocytes. Isolated cells were washed with PBS, re-suspended with 0.1 ml of PBS and stained with fluorescent antibodies directed against specific surface markers.
Cells were incubated with mobs: CD8-PE, CD4-APC, CD3-FITC, CD25-PE-Cy7, CD69-PerCP, CD44-PE-Cy7, CD137-PE-Cy7, CD279-FITC, CD62L-FITC and CD223-FITC (eBioscience).

CXCR4 receptor = CXCR4 receptor (Homo sapiens, UniProt P61073); conditions: cited from earlier work
Chain of CXCR4 receptor (P61073 whole entry): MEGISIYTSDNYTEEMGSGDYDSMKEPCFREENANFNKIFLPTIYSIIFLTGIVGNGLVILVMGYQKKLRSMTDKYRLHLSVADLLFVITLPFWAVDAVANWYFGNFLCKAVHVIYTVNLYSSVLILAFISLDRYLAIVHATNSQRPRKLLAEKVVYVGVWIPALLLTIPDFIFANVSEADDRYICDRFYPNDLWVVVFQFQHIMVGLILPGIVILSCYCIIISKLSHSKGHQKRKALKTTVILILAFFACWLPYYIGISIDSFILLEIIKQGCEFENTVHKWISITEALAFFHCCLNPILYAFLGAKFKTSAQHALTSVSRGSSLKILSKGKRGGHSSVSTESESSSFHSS

mice = conditions: single injection; cited from earlier work
[3] = tested on: myeloid leukemia, hematopoietic tumors and non-small cell lung cancer; conditions: cited from earlier work
[4] = from DiPersio Blood 2008; cited from earlier work
[5] = peripheral blood, 0.5-1 mg/kg SC

## 4F-benzoyl-Arg-Arg-Nal-Cys-Tyr-Cit-Lys-DLys-Pro-Tyr-Arg-Cit-Cys-Arg-NH2 ({Benzoyl(4-F)}-RR[Nal]CY[Cit]K[dK]PYR[Cit]CR-NH2; not fully specified; printed as 4F-benzoyl-Arg-Arg-Nal-Cys-Tyr-Cit-Lys-DLys-Pro-Tyr-Arg-Cit-Cys-Arg-NH2; also: cyclised, bridge not given here) [BL-8040]
Healthy subjects [1]; 4 hr post BL-8040 administration, baseline 6.3
  mean WBC count: 2.97e+10 L⁻¹
Healthy subjects [1]; 0.5 mg/kg
  Mean CD34+ count (HSPC): 37 cells/μL
  Mean count of CD34+ HSPC: 38 cells/μL
Healthy subjects [1]; 0.75 mg/kg
  Mean CD34+ count (HSPC): 31 cells/μL
  Mean count of CD34+ HSPC: 46 cells/μL
Healthy subjects [1]; 1 mg/kg
  Mean CD34+ count (HSPC): 35 cells/μL
  Mean count of CD34+ HSPC: 58 cells/μL
Healthy subjects [1]; healthy subjects, SC once daily on 2 consecutive days, all doses tested (0.5-1 mg/kg)
  safety and tolerability: safe and well tolerated
Healthy subjects [1]; healthy subjects, SC, 0.5-1 mg/kg
  primary treatment related adverse effects: mild to moderate transient injection site and systemic reactions
Healthy subjects [1]; [5]
  mobilization of MSC and HPC colony forming cells: rapid mobilization
  mobilization of T, B and NK cells: substantial mobilization
Healthy subjects [1]; post dosing
  duration of CXCR4 receptor occupancy and pharmacodynamic effect: ≥ 24 h
Healthy subjects [2]; 3.5-8 hours following 1 mg/kg
  B cells (CD19+), % of graft: 13.1%
  B cells (CD19+), median: 2.03 × 10^8/Kg and 2.03 (0.32-2.6) × 10^8/Kg
  Central memory CD4 T cells (CD3+/CD4+ CD45RA−/CCR7+), % of CD4+ cells: 37.99%
  Central memory CD8 T cells (CD3+/CD8+ CD45RA−/CCR7+), % of CD8 cells: 33.1%
  Cytotoxic T cells (CD3+CD8+), % of graft: 22.5%
  Cytotoxic T cells (CD3+CD8+), median: 2.89 × 10^8/Kg and 2.89 (1.7-4.9) × 10^8/Kg
  Effector CD4 T cells (CD3+/CD4+ CD45RA+/CCR7−), % of CD4+ cells: 6.24%
  Effector CD8 T cells (CD3+/CD8+ CD45RA+/CCR7−), % of CD8 cells: 1.09%
  Effector memory CD4 T cells (CD3+/CD4+ CD45RA−/CCR7−), % of CD4+ cells: 21.19%
  Effector memory CD8 T cells (CD3+/CD8+ CD45RA−/CCR7−), % of CD8 cells: 1.94%
  HSPC (CD34+), % of graft: 0.78%
  HSPC (CD34+), median: 11.89 × 10^6/Kg and 11.89 (5.1-15.0) × 10^6/Kg
  Immature DCs (lin-CD11c+CD83−), % of graft: 0.95%
  Immature DCs (lin-CD11c+CD83−), median: 1.16e+07 kg⁻¹
  NK cells (CD3−CD56+), % of graft: 4.76%
  NK cells (CD3−CD56+), median: 0.53 × 10^8/Kg and 0.53 (0.15-1.55) × 10^8/Kg
  NKT cells (CD3+CD56+), % of graft: 1.2%
  NKT cells (CD3+CD56+), median: 9.8e+06 kg⁻¹
  Naïve CD4 T cells (CD3+/CD4+ CD45RA+/CCR7+), % of CD4+ cells: 34.61%
  Naïve CD8 T cells (CD3+/CD8+ CD45RA+/CCR7+), % of CD8 cells: 63.89%
  Regulatory T cells (CD4+CD25+Foxp3+), % of graft: 1.28%
  Regulatory T cells (CD4+CD25+Foxp3+), median: 1.61e+07 kg⁻¹
  T cells (CD3+), % of graft: 48.08%
  T cells (CD3+), median: 7.32 × 10^8/Kg and 7.32 (4.0-8.5) × 10^8/Kg
  T helper cells (CD3+CD4+), % of graft: 21.7%
  T helper cells (CD3+CD4+), median: 3.3 × 10^8/Kg and 3.3 (1.44-3.9) × 10^8/Kg
Healthy subjects [2]; 24 hours following administration, FIG. 3
  number of T cells in the periphery at 24 hours: remains high
Healthy subjects [2]; following administration of BL-8040
  time at which number of T cells in the periphery started to decline: 48 h
Healthy subjects [2]; ratio of medians
  Fold Difference (BL-8040/AMD3100), B cells CD19: 2.00
  Fold Difference (BL-8040/AMD3100), Cytotoxic T cells CD3+CD8+: 2.22
  Fold Difference (BL-8040/AMD3100), HSPC CD34+: 4.10
  Fold Difference (BL-8040/AMD3100), NK cells CD3−CD56+: 1.77
  Fold Difference (BL-8040/AMD3100), T cells CD3+: 1.59
  Fold Difference (BL-8040/AMD3100), T helper cells CD3+CD4+: 1.03
  Fold Difference (BL-8040/G-CSF), Cytotoxic T cells CD3+CD8+: 7.23
  Fold Difference (BL-8040/G-CSF), HSPC CD34+: 2.83
  Fold Difference (BL-8040/G-CSF), NK cells CD3−CD56+: 2.65
  Fold Difference (BL-8040/G-CSF), T cells CD3+: 5.63
  Fold Difference (BL-8040/G-CSF), T helper cells CD3+CD4+: 3
Healthy subjects [2]; single 1 mg/kg SC, FIG. 1
  increase in the total number of WBC: 5-7 fold
Healthy subjects [2]; single administration, FIGS. 2-3
  time within which mobilization of DCs and T cells occurs: 3 to 4 h
C57BL mice
  source of mobilized T cells (spleen and peripheral lymph nodes counts): T cells are mobilized from the lymph node into the blood
C57BL/6 mice; cancerous mice vs naive mice, FIG. 6B
  CD69+ CD25+ activated T cells in collected cells: more CD69+ CD25+ activated T cells
C57BL/6 mice; tumor bearing mice vs non injected or naive mice, blood 2 h later, FIG. 6A
  mobilization of CD4 and CD8 cells: increased mobilization of both CD4 and CD8 cells
CXCR4 receptor
  binding to the CXCR4 receptor: high affinity and long receptor occupancy
mice
  mobilization of long term repopulating stem cells: mobilized long term repopulating stem cells sufficient for transplantation
[3]
  toxicity against tumors: toxic against several tumors

## c1cc(CN2CCCNCCNCCCNCC2)ccc1CN1CCCNCCNCCCNCC1 [AMD3100]
[4]
  B cells (CD19), Median (range): 1.0 (0.2-2.4) × 10^8/Kg
  Cytotoxic T cells (CD3+CD8+), Median (range): 1.3 (0.4-3.4) × 10^8/Kg
  HSPC (CD34+), Median (range): 2.9 (1.2-6.3) × 10^6/Kg
  NK cells (CD3−CD56+), Median (range): 0.3 (0.1-1.0) × 10^8/Kg
  T cells (CD3+), Median (range): 4.6 (1.5-7.8) × 10^8/Kg
  T helper cells (CD3+CD4+), Median (range): 3.2 (1-5.7) × 10^8/Kg

B1: G-CSF: mobilization agent (protein, UniProt P09919 31-207, looked up)
Granulocyte …: TPLGPASSLPQSFLLKCLEQVRKIQGDGAALQEKLVSECATYKLCHPEELVLLGHSLGIPWAPLSSCPSQALQLAGCLSQLHSGLFLYQGLLQALEGISPELGPTLDTLQLDVADFATTIWQQMEELGMAPALQPTQGAMPAFASAFQRRAGGVLVASHLQSFLEVSYRVLRHLAQP
[4]
  Cytotoxic T cells (CD3+CD8+), Median (range): 0.4 (0.4-3.4) × 10^8/Kg
  HSPC (CD34+), Median (range): 4.2 (2.5-18) × 10^6/Kg
  NK cells (CD3−CD56+), Median (range): 0.2 (0.2-0.5) × 10^8/Kg
  T cells (CD3+), Median (range): 1.3 (1.2-6.8) × 10^8/Kg
  T helper cells (CD3+CD4+), Median (range): 1.1 (0.7-3.2) × 10^8/Kg

— US20180161366A1, “METHODS OF OBTAINING MONONUCLEAR BLOOD CELLS AND USES THEREOF” (Biokine Therapeutics Ltd., priority 2015, published 2018)
